Data as given in patent US20250289813A1, “CDK INHIBITORS, PHARMACEUTICAL COMPOSITIONS, AND THERAPEUTIC APPLICATIONS” (ONQUALITY PHARMACEUTICALS CHINA LTD., priority 2022, published 2025).

Key:
CDK4/cyclin D1 = CDK4/cyclin D1 (Homo sapiens (Human), UniProt P11802); test: CDK4 Caliper Mobility Shift assay; assay type: biochemical
Summary of the method: (§1)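 Caliper mobility-shift kinase assay with FAM-labeled peptide substrate. CDK4/cyclin D1 (15 nM) ran in 20 mM HEPES pH 7.5, 0.01% Triton X-100 at […] ATP; CDK6/cyclin D1 (7.5 nM) in 50 mM HEPES pH 7.5, 0.0015% BRIJ-35 at […] ATP. Compound was pre-incubated 10 min, reactions ran at 28 °C, and IC50 came from percent conversion inhibition.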

CDK6/cyclin D1 = CDK6/cyclin D1 (Homo sapiens (Human), UniProt Q00534); test: CDK6 Caliper Mobility Shift assay; assay type: biochemical
CDK6/cyclin D1, sequence (Q00534 whole entry): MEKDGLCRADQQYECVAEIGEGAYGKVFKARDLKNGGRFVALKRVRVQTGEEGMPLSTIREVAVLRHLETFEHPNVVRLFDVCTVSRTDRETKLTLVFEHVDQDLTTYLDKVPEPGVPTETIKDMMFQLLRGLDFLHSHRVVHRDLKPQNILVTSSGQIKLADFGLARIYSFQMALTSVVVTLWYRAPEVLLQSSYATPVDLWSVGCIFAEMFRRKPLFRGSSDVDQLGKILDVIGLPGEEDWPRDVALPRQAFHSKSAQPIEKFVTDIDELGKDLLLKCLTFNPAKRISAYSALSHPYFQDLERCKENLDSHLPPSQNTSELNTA
CDK6/cyclin D1, sequence (P24385 whole entry partner): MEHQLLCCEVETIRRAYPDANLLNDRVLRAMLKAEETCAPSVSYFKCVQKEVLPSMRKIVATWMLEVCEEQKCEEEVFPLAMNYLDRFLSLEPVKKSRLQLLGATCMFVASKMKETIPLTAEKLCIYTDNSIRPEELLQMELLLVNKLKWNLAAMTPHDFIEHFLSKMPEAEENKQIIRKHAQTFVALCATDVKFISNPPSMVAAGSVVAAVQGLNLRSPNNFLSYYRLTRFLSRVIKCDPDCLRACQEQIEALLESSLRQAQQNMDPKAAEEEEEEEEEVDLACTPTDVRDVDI
Summary of the method: as §1

BALB/c mice [1] = test: Irinotecan-induced diarrhea/constipation mouse model; assay type: in vivo; details: Day 7
Method: A compound was evaluated in an irinotecan-induced diarrhea/constipation mouse model for its protective effect on the cytotoxicity induced by a chemotherapy drug. On day 0, BALB/c mice (20-25 g, 7-8 weeks of age) were randomly divided into 3 groups (vehicle, irinotecan, and compound treatment) with 10 mice in each group. In the vehicle group, the mice were administered orally with the same medium in the same amount as used in the treatment group for the compound and then injected with the same medium in the same amount as used in the irinotecan group. In the irinotecan group, the mice were administered orally with the same medium in the same amount as used in the treatment group for the compound and then injected with irinotecan (240 mg/kg). In the treatment group, the mice were administrated orally with the compound and then injected with irinotecan (240 mg/kg). The compound was formulated with a 0.5% CMC solution. […]
On Day 7, the diarrhea grade of each mouse was determined according to the method described in Kurita et al., Cancer Chemother. Pharmacol. 2000, 46, 211-20, the disclosure of which is incorporated herein by reference in its entirety. The diarrhea remission rates were calculated using the formula of Diarrhea remission rate (%)=(diarrhea grade in […]−diarrhea grade in treatment group)/diarrhea grade in 5-FU group×100%.

[2] = test system: COLO205 human colon cancer cells; test: CASPASE-GLO 3/7 apoptosis assay (protection against chemotherapy drug induced cytotoxicity); assay type: cell-based
Method: The CASPASE-GLO 3/7 apoptosis assay was used to evaluate the protective effect of a compound on the cytotoxicity induced by a chemotherapy drug. The apoptosis assay was carried out using COLO205 human colon cancer cells. The cells were grown at 37° C. in a 5% CO2 humidified incubator in PRIM1640 supplemented with 10% FBS and 0.01 mg/mL bovine insulin. The cells were seeded at 4,000 cells/well in a 96-well plate. After incubated overnight, the cells were pretreated with a compound at predetermined concentrations or a vehicle for 16 h, followed by addition of a chemotherapy drug. After incubated for another 48 h, the CASPASE-GLO 3/7 reagent (100 μL/well) was added. The cells were mixed on an orbital shaker for 10 min and incubated at room temperature for 2 h. The 96-well plate was read with an ENVISION reader.

BALB/c mice [3] = test: 5-FU-induced diarrhea mouse model; assay type: in vivo; details: 8 h before and 4 h after 5-FU (175 mg/kg), day 7
Method: A compound was evaluated in a 5-FU-induced diarrhea mouse model for its protective effect on the cytotoxicity induced by the chemotherapy drug 5-FU. On day 0, BALB/c mice (20-25 g, 7-8 weeks of age) were randomly divided into 3 groups (vehicle, 5-FU, and compound treatment) with 10 mice in each group. In the vehicle group, the mice were administered orally with the same medium in the same amount as used in the treatment group for the compound and then injected with the same medium in the same amount as used in the 5-FU group. In the 5-FU group, the mice were administered orally with the same medium in the same amount as used in the treatment group for the compound and then injected with 5-FU (175 mg/kg). In the treatment group, the mice were administrated orally with the compound and then injected with 5-FU (175 mg/kg). The compound was formulated with a 0.5% CMC solution.
On day 7, the diarrhea grade of each mouse was determined according to the method described in Kurita et al., Cancer Chemother. Pharmacol. 2000, 46, 211-20, the disclosure of which is incorporated herein by reference in its entirety. Diarrhea remission rates were calculated using the formula of Diarrhea remission rate (%)=(diarrhea grade in 5-FU group—diarrhea grade in treatment group)/diarrhea grade in 5-FU group×100%.

[4] = test system: MCF-7 human breast cancer cells; test: CELLTITER-GLO luminescent cell viability assay; assay type: cell-based; details: MCF7, 192 h, MCF-7 cells, 8 days, read-out: EC50 (Effect on Cell Viability)
Summary of the method: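 MCF-7 cells grown in EMEM with 10% FBS and insulin, seeded at 3,000 cells/well and left to adhere overnight. Compound exposure lasted 8 days at 37 °C; viability was read by CellTiter-Glo luminescence.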

[5] = 10 mg/kg oral, 4 h before and 8 h after irinotecan (240 mg/kg)
[6] = compound 50 μM, Irinotecan (20 μM)

CDK4/cyclin D1, sequence (P11802 whole entry): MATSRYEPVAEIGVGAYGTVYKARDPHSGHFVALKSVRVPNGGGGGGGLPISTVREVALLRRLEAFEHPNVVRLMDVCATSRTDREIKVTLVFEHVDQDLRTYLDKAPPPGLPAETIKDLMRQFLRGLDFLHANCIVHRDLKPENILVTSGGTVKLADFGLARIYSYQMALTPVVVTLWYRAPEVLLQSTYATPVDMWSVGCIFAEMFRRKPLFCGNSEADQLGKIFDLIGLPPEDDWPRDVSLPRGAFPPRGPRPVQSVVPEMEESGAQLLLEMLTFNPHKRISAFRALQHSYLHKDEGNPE
CDK4/cyclin D1, sequence (P24385 whole entry partner): as the sequence (P24385 whole entry partner) above

## CCS(=O)(=O)N1CCN(c2ccc(Nc3ncc4c(C)c(C(C)=O)c(=O)n(C5CCCC5)c4n3)nc2)CC1 [Compound C2, 6-Acetyl-8-cyclopentyl-2-((5-(4-(ethylsulfonyl)piperazin-1-yl)pyridin-2-yl)-amino)-5-methylpyrido[2,3-d]pyrimidin-7(81)-one]
CDK4/cyclin D1
  IC50: ≤ 200 nM
CDK6/cyclin D1
  IC50: ≤ 200 nM
BALB/c mice [1]; 75 mg/kg oral, 4 h before and 8 h after irinotecan (240 mg/kg)
  Remission Rate (diarrhea remission rate): 30%
[2]; compound 0.2 μM, 5-Fu (10 μM)
  RPR (relative protection rate): 59%
[2]; compound 2 μM, 5-Fu (10 μM)
  RPR (relative protection rate): 79%
[2]; compound 20 μM, 5-Fu (10 μM)
  RPR (relative protection rate): 87%
BALB/c mice [3]; 75 mg/kg oral
  Remission Rate (diarrhea remission rate): 50%

## CC(=O)c1c(C)c2cnc(Nc3ccc(N4CCN(S(=O)(=O)NC(=O)OC5CCOCC5)CC4)cn3)nc2n(C2CCCC2)c1=O [Compound A22, Tetrahydro-2H-pyran-4-yl ((4-(6-((6-acetyl-8-cyclopentyl-5-methyl-7-oxo-7,8-dihydropyrido[2,3-d]pyrimidin-2-yl)amino)pyridin-3-yl)piperazin-1-yl)sulfonyl)carbamate]
CDK4/cyclin D1
  IC50: 200 to 500 nM
CDK6/cyclin D1
  IC50: ≤ 200 nM
BALB/c mice [1]; 5 mg/kg oral, 6 h before and 6 h after irinotecan (240 mg/kg)
  Remission Rate (diarrhea remission rate): 30%
BALB/c mice [1]; 25 mg/kg oral, 6 h before and 6 h after irinotecan (240 mg/kg)
  Remission Rate (diarrhea remission rate): 50%
[2]; compound 0.5 μM, 5-Fu (10 μM)
  RPR (relative protection rate): 26%
[2]; compound 25 μM, 5-Fu (10 μM)
  RPR (relative protection rate): 64%
[4]
  EC50: > 10000 nM
BALB/c mice [3]; 50 mg/kg oral
  Remission Rate (diarrhea remission rate): 55%
BALB/c mice [3]; 100 mg/kg oral
  Remission Rate (diarrhea remission rate): 36%

## CC(=O)NCCOC(=O)NS(=O)(=O)N1CCN(c2ccc(Nc3ncc4c(C)c(C(C)=O)c(=O)n(C5CCCC5)c4n3)nc2)CC1 [Compound A15, 2-Acetamidoethyl ((4-(6-((6-acetyl-8-cyclopentyl-5-methyl-7-oxo-7,8-dihydropyrido[2,3-d]pyrimidin-2-yl)amino)pyridin-3-yl)piperazin-1-yl)sulfonyl)carbamate]
CDK4/cyclin D1
  IC50: 200 to 500 nM
CDK6/cyclin D1
  IC50: ≤ 200 nM
BALB/c mice [1]; [5]
  Remission Rate (diarrhea remission rate): 40%
BALB/c mice [1]; 50 mg/kg oral, 4 h before and 8 h after irinotecan (240 mg/kg)
  Remission Rate (diarrhea remission rate): 60%
[2]; compound 0.1 μM, 5-Fu (10 μM)
  RPR (relative protection rate): 28%
[2]; compound 1 μM, 5-Fu (10 μM)
  RPR (relative protection rate): 84%
[2]; compound 10 μM, 5-Fu (10 μM)
  RPR (relative protection rate): 71%
[4]
  EC50: 1000 to 10000 nM

## CC(=O)c1c(C)c2cnc(Nc3ccc(N4CCN(S(=O)(=O)OCOC(=O)C(C)(C)C)CC4)cn3)nc2n(C2CCCC2)c1=O [Compound B1, (((4-(6-((6-acetyl-8-cyclopentyl-5-methyl-7-oxo-7,8-dihydropyrido[2,3-d]-pyrimidin-2-yl)amino)pyridin-3-yl)piperazin-1-yl)sulfonyl)oxy)methyl pivalate]
CDK4/cyclin D1
  IC50: ≤ 200 nM
CDK6/cyclin D1
  IC50: ≤ 200 nM
BALB/c mice [1]; [5]
  Remission Rate (diarrhea remission rate): 60%
[2]; compound 5 μM, Irinotecan (20 μM)
  RPR (relative protection rate): 90%
[2]; [6]
  RPR (relative protection rate): 65%
[2]; compound 100 μM, Irinotecan (20 μM)
  RPR (relative protection rate): 32%
[4]
  EC50: ≤ 1000 nM
BALB/c mice [3]; 10 mg/kg oral
  Remission Rate (diarrhea remission rate): 38%

## CC(=O)c1c(C)c2cnc(Nc3ccc(N4CCN(S(=O)(=O)N5CC(CO)OC5=O)CC4)cn3)nc2n(C2CCCC2)c1=O (centres unmarked) [Compound A12, 3-((4-(6-((6-Acetyl-8-cyclopentyl-5-methyl-7-oxo-7,8-dihydropyrido[2,3-d]-pyrimidin-2-yl)amino)pyridin-3-yl)piperazin-1-yl)sulfonyl)-5-(hydroxymethyl)oxazolidin-2-one]
CDK4/cyclin D1
  IC50: ≤ 200 nM
CDK6/cyclin D1
  IC50: ≤ 200 nM
[4]
  EC50: 1000 to 10000 nM
BALB/c mice [3]; 10 mg/kg oral
  Remission Rate (diarrhea remission rate): 50%
BALB/c mice [3]; 25 mg/kg oral
  Remission Rate (diarrhea remission rate): 90%

## CC(=O)c1c(C)c2cnc(Nc3ccc(N4CCN(S(=O)(=O)NC(=O)[C@H](C)N)CC4)cn3)nc2n(C2CCCC2)c1=O [Compound A6, (S)—N-((4-(6-((6-acetyl-8-cyclopentyl-5-methyl-7-oxo-7,8-dihydropyrido[2,3-d]-pyrimidin-2-yl)amino)pyridin-3-yl)piperazin-1-yl)sulfonyl)-2-aminopropanamide]
CDK4/cyclin D1
  IC50: ≤ 200 nM
CDK6/cyclin D1
  IC50: ≤ 200 nM
[2]; compound 0.01 μM, Irinotecan (20 μM)
  RPR (relative protection rate): 20%
[2]; compound 0.2 μM, Irinotecan (20 μM)
  RPR (relative protection rate): 36%
[2]; compound 2 μM, Irinotecan (20 μM)
  RPR (relative protection rate): 89%
[2]; compound 20 μM, Irinotecan (20 μM)
  RPR (relative protection rate): 73%
[2]; [6]
  RPR (relative protection rate): 57%
[4]
  EC50: ≤ 1000 nM
BALB/c mice [3]; 5 mg/kg oral
  Remission Rate (diarrhea remission rate): 20%
BALB/c mice [3]; 50 mg/kg oral
  Remission Rate (diarrhea remission rate): 66%
BALB/c mice [3]; 100 mg/kg oral
  Remission Rate (diarrhea remission rate): 33%

## CC(=O)c1c(C)c2cnc(Nc3ccc(N4CCN(S(=O)(=O)NC(=O)OCCO)CC4)cn3)nc2n(C2CCCC2)c1=O [Compound A1, 2-hydroxyethyl ((4-(6-((6-acetyl-8-cyclopentyl-5-methyl-7-oxo-7,8-dihydropyrido[2,3-d]pyrimidin-2-yl)amino)pyridin-3-yl)piperazin-1-yl)sulfonyl)carbamate]
CDK4/cyclin D1
  IC50: ≤ 200 nM
CDK6/cyclin D1
  IC50: ≤ 200 nM
BALB/c mice [1]; 5 mg/kg oral, 4 h before and 8 h after irinotecan (240 mg/kg)
  Remission Rate (diarrhea remission rate): 50%
BALB/c mice [1]; 25 mg/kg oral, 4 h before and 8 h after irinotecan (240 mg/kg)
  Remission Rate (diarrhea remission rate): 70%
BALB/c mice [1]; 100 mg/kg oral, 4 h before and 8 h after irinotecan (240 mg/kg)
  Remission Rate (diarrhea remission rate): 20%
[2]; compound 0.1 μM, 5-Fu (10 μM)
  RPR (relative protection rate): 13%
[2]; compound 1 μM, 5-Fu (10 μM)
  RPR (relative protection rate): 82%
[2]; compound 5 μM, 5-Fu (10 μM)
  RPR (relative protection rate): 90%
[2]; compound 10 μM, 5-Fu (10 μM)
  RPR (relative protection rate): 68%
[2]; compound 100 μM, 5-Fu (10 μM)
  RPR (relative protection rate): 11%
[4]
  EC50: > 10000 nM
